Values quoted from earlier work as cited in patent publication EP3819377A1, “CIRCULAR RNA AND USES THEREOF FOR […]-BINDING PROTEINS” (Justus-Liebig-Universität Gießen, priority 2019, dated 2021).

Settings: cationic lipid with a tertiary amine group; WO 2012/031046 A2

For `CCCCC/C=C\C/C=C\CCCCCCCCOCC(CN(C)C)OCCCCCCCC/C=C\C/C=C\CCCCC` (stereo not shown) [DLinDMA, 1,2-dilinoleyloxy-N,N-dimethyl-3-aminopropane], the pKa is given as 5.8.
